This is an account of results in patent US7695923B2, “CFTR polypeptides methods to overcome biosynthetic misprocessing” (Mayo Foundation for Medical Education and Research, priority 1999, dated 2010).

“Also recorded” adds a separate entry of the source.

The test system of data set [1] is CFTR chloride channels. As to the kind of experiment: Single CFTR Cl- channel recording in planar lipid bilayers. As to conditions: for Conductance: 300 mM Tris-HCl; for Conductance / Long mean closed time τc2 / Mean open time τ0 / Short mean closed time τc1: -75 mV, 2 mM MgATP; for open probability: 25° C. Format: biochemical, human. As to the method:
(§1) To further characterize the Cl^− channel activity, membrane vesicles were isolated from cells expressing wild-type, wild-type/4RK and ΔF508/4RK CFTR, fused with planar lipid bilayers and single channels were recorded (Aleksandrov, A. A., and Riordan, J. R. (1998) FEBS Lett. 431:97-101). Vesicles were prepared and phosphorylated with PKA as described previously (Aleksandrov and Riordan, 1998, supra). Briefly, planar lipid bilayers were painted onto a 0.2 mm hole drilled in a Teflon cup using a phospholipid solution in n-decane containing a 2:1 mixture of 1-palmitoyl-2-oleoyl-sn-glycero-3-phosphoethanolamine and 1-palmitoyl-2-oleoyl-sn-glycero-3-phosphoserine (20 mg/ml). The lipid bilayer separated 1.0 ml of solution in the Teflon cup (cis-side) from 4.0 ml of solution in an outer glass chamber (trans-side). Both chambers were magnetically stirred and thermostated. Heating and temperature control were established using a Temperature Control System TC2BIP (Cell MicroControls). Electrical contact with the solutions was provided by Ag/AgCl electrodes through agar bridges filled with 0.5 M KCl. The membrane potential difference was measured as the difference between trans and cis side potentials. The trans side was grounded and electrical measurements of the single channel current were performed under voltage clamp conditions using an Axopatch 200B (Axon Instruments) amplifier. The output signal was filtered with an 8-pole low pass Bessel Filter LPBF-48DG (NPI Electronic GmbH) with cut off frequency of 50 Hz and recorded on magnetic tape using a VR-10B (Instrutech Corp.) digital data recorded on a Sony SLV-440 VCR. For data analysis, the signal was digitized (Digidata 1200; Axon Instruments) with a sampling rate of 500 Hz and analyzed using pCLAMP 6.0 (Axon Instruments) software. Origin 4.0 (Microcal) software was used to fit all points histograms by multi-peak Gaussians. Membrane vesicles were prephosphorylated with PKA and added as a concentrated stock solution to the cis side to obtain a final protein concentration of 10-15 μg/ml. Measurements were made in symmetrical salts solutions containing, in mM: 300 Tris-HCl, 2 MgCl, 1 EGTA, pH=7.2, at a membrane potential of −75 mV. MgATP (2 mM) was added to the cis side only. Under these conditions any cationic channels present in the membrane vesicles are invisible and CFTR chloride channels appeared only after fusion of vesicles with an inside out orientation. Conductances for wild-type, wild-type/4RK and ΔF508/4RK were 10.7, 10.8, and 10.7 pS, respectively. Mean open times τ0 were 230, 1400, and 700 msec respectively. Short mean closed times τc1 were 10 msec in each case. Long mean closed times τc2 were 680, 2000, and 2800 msec, respectively. Conductance as a function of Cl^− concentration and temperature as well as anion selectivity of the CFTR ion channel were tested in control experiments showing good agreement with published data (Tabcharani, J. A et al. (1997) J. Gen. Physiol. 110:341-54).

Data set [2] concerns BHK cells. As to the kind of experiment: 35S-methionine pulse chase of CFTR maturation. It counts as cell-based, Baby hamster. As to conditions: for maturation at the end of the pulse: end of the pulse (0 min); for conversion of precursor to mature endoH resistant form during chase: pulse chase; for radioactivity of pulse-labeled immature band present in mature band (conversion of precursor to product): after 4 h of chase, electronic autoradiography. The protocol: Pulse chase studies were performed to determine the rate at which maturation occurred in the arginine-framed triplet substituted wild-type and ΔF508 CFTR polypeptides (FIG. 2). […] Cells were lysed at the end of the labeling period (0 chase time) or were further incubated in complete medium containing 5% fetal bovine serum and 1 mM methionine for the indicated times (chase). Cells were collected and lysed with the NP40 lysis buffer described above and centrifuged at 15,000×g for 15 min at 4° C. to obtain a soluble supernatant which was incubated overnight with the M3A7 primary antibody. Protein G-agarose (Gibco-BRL) was then used to remove the complexes formed which were washed four times with RIPA buffer, dissolved in electrophoresis sample buffer, and subsequently fractionated on SDS-7% acrylamide gels. Following fractionation, the gels were fixed in 30% methanol and 10% acetic acid, equilibrated in 1M sodium salicylate and dried for fluorography. Electronic autoradiography was performed with a Packard Instant Imager. […]

Data set [3] deals with BHK cells. As to the kind of experiment: cAMP stimulated 36Cl- efflux from CFTR expressing cells. Format: cell-based, Baby hamster. As to conditions: stimulation with IBMX, Forskolin, dibutyryl cyclic AMP. As to the method: Wild-type and ΔF508 CFTR expressing cells with each of the individual R[…]K substitutions, or all four lysine substitutions were grown to confluence in six well culture dishes. The cells were washed with a modified Ringer's buffer solution (136 mM NaNO3, 3 mM KNO3, 2 mM Ca(NO3)2, 2 mM Mg(NO3)2, 10 mM glucose and 20 mM HEPES, pH 7.4) and loaded for 60 min at room temperature with the same buffer supplemented with 1 μCi Na^36Cl (Amersham) in a volume of 0.5 ml per well. Wells were then washed three times at one min intervals. Samples (0.5 ml) were then collected at 1 minute intervals for scintillation counting with stimulation occurring at time 0 by adding buffer containing 1 mM IBMX, 10 μM Forskolin and 100 μM dibutyryl cyclic AMP. The 0.5 ml samples were collected into 24 well Top Count plates (Packard) and 1 ml of Microcint 40 scintillation cocktail (Packard) was added. ^36Cl^− radioactivity was determined in a Packard Top Count scintillation counter.

In data set [4] the test system is BHK cells. As to the kind of experiment: Western blot of BHK cell extracts with M3A7 antibody, with endoglycosidase H digestion. It counts as cell-based, Baby hamster. The conditions noted are these: ΔF508 CFTR background; for mature bands of lower mobility on Western blot: steady state, BHK cell extracts. As to the method: Baby hamster kidney cells (BHK) cells grown at 37° C. in 5% CO2 were employed as hosts for CFTR expression as described previously (Loo et al. (1998) EMBO J. 17:6879-6887; and Seibert, F. S et al. (1995) J. Biol. Chem. 270:2158-2162). Subconfluent BHK cells were transformed with the above wild-type or ΔF508 CFTR constructs using calcium phosphate precipitation (Chen, C., and Okayama, H. (1987) Mol. Cell. Biol. 7: 2745-2752). After growth in selective media containing 500 μM methotrexate, individual colonies were picked and amplified in the same selective media.
BHK cells were grown, collected and then lysed with 1% SDS; the DNA was sheared by cycling through a 22 gauge needle. Protein lysate (20 μg) from the sample were then subjected to SDS-PAGE on 7% polyacrylamide gels. Protein was electroblotted from the gel to nitrocellulose membrane and the membrane was probed with a mouse anti-CFTR monoclonal antibody, M3A7 (Kartner, N. et al. (1992) Nat. Genetics 1:321-7). Chemiluminescent detection was performed according to the manufacturer's recommendations (Pierce).
For endoglycosidase H treatment, cell lysates were diluted with 10 volumes of buffer (50 mM sodium acetate, pH 5.3, 0.5% Nonidet P-40, 1% β-mercaptoethanol plus a protease inhibitor mixture: 2 μg/ml aprotinin, 120 μg/ml benzamidine, […], 1 μg/ml leupepetin and 50 μg/ml pefabloc). This yielded a final SDS concentration of 0.1%. Samples were then incubated for 4 hr at 37° C. with 10 mU of endoglycosidase H (Boehringer Mannheim). The reactions were stopped by addition of 4 volumes of cold ethanol (−20° C.) to precipitate the proteins. Precipitated proteins were then resuspended in gel loading dye and subjected to SDS-PAGE and immunoblotting as above.
In general terms: Immunoblotting shows a protein as a band on a membrane.

The test system of data set [5] is BHK cells. As to the kind of experiment: Cell surface biotinylation of CFTR on intact cell monolayers. It counts as cell-based, Baby hamster. The protocol: For cell surface biotinylation studies, cells grown to about 90% confluency were treated with 2 mM sodium butyrate for 18 h to augment CFTR expression. Dishes of cells were then placed on ice in a cold room for 30 minutes and all subsequent steps were performed. Cells washed with PBS containing 0.1 mM CaCl2 and 1.0 mM MgCl2, were labeled using 3 ml of 1 mg/ml EZ-Link Sulfo-NHS-SS-biotin (Pierce) in PBS, pH 8.0 for 30 minutes. Following washes in PBS+1% BSA and PBS, cells were incubated for 30 minutes in NP40 lysis buffer (0.09% NP40, 150 mM NaCl, 10 mM NH4MoO4, 50 mM Tris-HCl, pH 7.4), scraped and transferred to microfuge tubes. Insoluble materials were removed by centrifugation. Biotinylated proteins were then precipitated by incubation overnight with 50 μl of packed immobilized streptavidin beads (Pierce). Beads were washed with RIPA buffer (0.1% SDS, 1% DOC, 1% Triton X-100, 150 mM NaCl, 50 mM Tris-Hcl, pH 7.4) and proteins eluted with gel sample buffer for electrophoresis and Western blotting with M3A7 as detailed above.

Data set [6] concerns BHK cells. As to the kind of experiment: Indirect immunofluorescence localization of CFTR with M3A7. It counts as cell-based, Baby hamster. The conditions noted are these: M3A7 staining, permeabilized cells. The protocol: Immunofluorescence microscopy in cells expressing ΔF508 CFTR was performed using the highly specific monoclonal antibody, M3A7 (Kartner et al., 1992, supra). Briefly, transformed cells were grown on coverslips, fixed in 70% cold methanol at −20° C. for 10 minutes, blocked using 1% BSA and 5% normal rabbit serum in PBS and were permeabilized by incubating in PBS+0.1% saponin for 1 h at 4° C. CFTR was detected by incubation with 10 μg/ml of M3A7 primary antibody for 60 min at room temperature. Rhodamine linked rabbit anti-mouse secondary antibody (DAKO) was diluted 1:50 in the same blocking solution for a further 1 h incubation. Photomicrographs were made using a Diagnostic Instruments Spot Cam digital camera on a Nikon Microphot-FXA microscope.

The target in data set [7] is T1, CFTR chloride channels (Homo sapiens, UniProt P13569, DEL508-508/V470M).
T1 construct: These five fragments were ligated together to generate full length CFTR cDNA in pNUT; expressed in transfected cells; host or cells: BHK (baby hamster kidney) cells, stably transfected with pNUT-CFTR constructs; membrane vesicles fused with planar lipid bilayers
T1 sequence (P13569 with tags, fused parts or gaps V470M/DEL508-508): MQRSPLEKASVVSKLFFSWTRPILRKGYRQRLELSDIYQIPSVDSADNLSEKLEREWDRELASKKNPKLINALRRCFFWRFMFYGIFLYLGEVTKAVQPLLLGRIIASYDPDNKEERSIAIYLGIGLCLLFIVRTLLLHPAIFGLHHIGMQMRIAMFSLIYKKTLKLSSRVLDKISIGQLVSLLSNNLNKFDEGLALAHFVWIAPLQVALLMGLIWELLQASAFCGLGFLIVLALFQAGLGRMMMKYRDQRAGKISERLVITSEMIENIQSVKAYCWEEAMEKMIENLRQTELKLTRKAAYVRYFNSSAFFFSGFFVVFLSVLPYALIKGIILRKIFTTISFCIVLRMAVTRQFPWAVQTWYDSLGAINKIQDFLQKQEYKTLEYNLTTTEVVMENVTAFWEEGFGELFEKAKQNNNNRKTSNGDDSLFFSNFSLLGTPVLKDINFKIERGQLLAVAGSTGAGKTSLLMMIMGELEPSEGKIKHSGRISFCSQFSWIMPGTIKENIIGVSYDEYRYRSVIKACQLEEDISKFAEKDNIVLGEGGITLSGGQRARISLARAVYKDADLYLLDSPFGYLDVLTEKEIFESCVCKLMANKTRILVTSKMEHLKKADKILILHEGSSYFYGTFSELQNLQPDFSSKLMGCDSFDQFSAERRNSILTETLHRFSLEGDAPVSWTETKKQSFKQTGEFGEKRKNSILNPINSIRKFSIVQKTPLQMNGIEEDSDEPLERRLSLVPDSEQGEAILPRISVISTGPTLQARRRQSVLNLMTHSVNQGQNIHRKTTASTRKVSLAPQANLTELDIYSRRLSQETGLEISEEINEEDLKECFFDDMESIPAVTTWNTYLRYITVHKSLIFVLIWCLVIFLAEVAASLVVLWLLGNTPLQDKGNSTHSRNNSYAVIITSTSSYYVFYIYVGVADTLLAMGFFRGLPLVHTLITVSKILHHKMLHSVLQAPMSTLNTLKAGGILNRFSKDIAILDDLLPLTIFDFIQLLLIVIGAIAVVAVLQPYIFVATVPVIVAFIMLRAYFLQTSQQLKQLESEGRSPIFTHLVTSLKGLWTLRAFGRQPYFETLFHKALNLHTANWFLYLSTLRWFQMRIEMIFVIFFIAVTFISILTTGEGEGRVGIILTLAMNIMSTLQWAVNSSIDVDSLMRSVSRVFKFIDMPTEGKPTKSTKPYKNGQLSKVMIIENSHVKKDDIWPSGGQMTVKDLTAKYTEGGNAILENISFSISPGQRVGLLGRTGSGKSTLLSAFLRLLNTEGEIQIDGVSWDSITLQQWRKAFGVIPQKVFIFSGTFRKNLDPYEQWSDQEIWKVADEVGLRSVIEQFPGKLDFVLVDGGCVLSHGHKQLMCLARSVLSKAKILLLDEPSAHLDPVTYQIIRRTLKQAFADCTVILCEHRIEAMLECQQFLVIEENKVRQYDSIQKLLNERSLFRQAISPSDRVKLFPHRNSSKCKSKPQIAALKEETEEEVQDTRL
As to the kind of experiment: Single CFTR Cl- channel recording in planar lipid bilayers. Format: biochemical. As to conditions: vesicles from BHK cells. As to the method:
as §1

On to “wild-type/4RK: wild-type CFTR in which four arginines (R29K, R516K, R555K, R766K) have been substituted with lysine”, for which, in the data set with CFTR chloride channels [1], the Conductance amounted to 10.8 pS, the open probability is about 0.61, the “Long mean closed time τc2” value stood at 2000 ms and the “Mean open time τ0” value worked out at 1400 ms. In addition, the “Short mean closed time τc1” value in the data set with CFTR chloride channels [1] came out at 10 ms. In the data set with BHK cells [2], the “maturation at the end of the pulse” value is given as “already evident” and the “conversion of precursor to mature endoH resistant form during chase” value is recorded as “more rapid maturation”.

Consider “R555K: ΔF508 CFTR in which arginine 555 has been substituted with lysine”, for which, in the data set with BHK cells [3], the “cAMP stimulated 36Cl- efflux rate” value is “No detectable increase in efflux rate”.

Take “R766K: ΔF508 CFTR in which arginine 766 has been substituted with lysine”: the “cAMP stimulated 36Cl- efflux rate” value in the data set with BHK cells [3] is listed as “No detectable increase in efflux rate”.

“ΔF508/4RK: ΔF508 CFTR having all four arginines (29, 516, 555, 766) substituted with lysine”: the “cAMP stimulated 36Cl- efflux rate” value in the data set on BHK cells [3] is listed as “more than half as rapid as those from cells expressing wild-type CFTR”. Further, in the data set on CFTR chloride channels [1], the Conductance came to 10.7 pS, the “Long mean closed time τc2” value was found to be 2800 ms, the “Mean open time τ0” value is 700 ms and the “Short mean closed time τc1” value is 10 ms. Moreover, in the data set with BHK cells [4], the “endoglycosidase H sensitivity of the large bands” value is listed as “Endoglycosidase-H insensitivity” and the “mature bands of lower mobility on Western blot” value is on record as “bands of lower mobility are produced”. The “accessibility of mature band to surface biotinylation” value with BHK cells [5] is reported as “accessible to the impermeant amino reactive biotinylation reagent”. In addition, in the data set on BHK cells [2], the “radioactivity of pulse-labeled immature band present in mature band (conversion of precursor to product)” value is given as “approximately 10%” and the “conversion of precursor to mature endoH resistant form during chase” value is “readily apparent”. Moreover, the “CFTR localization by immunofluorescence” value in the data set with BHK cells [6] is “extension of the staining more peripherally”.

“ΔF508 CFTR: export-incompetent cystic fibrosis causing CFTR mutant lacking phenylalanine 508”: in the data set with BHK cells [3], the “cAMP stimulated 36Cl- efflux rate” value was “No detectable increase in efflux rate”. Also, the “detection of CFTR-like single channels” value in the data set with CFTR chloride channels [7] is reported as “never been able to detect CFTR-like single channels”. Also, in the data set with BHK cells [2], the “conversion of precursor to mature endoH resistant form during chase” value is listed as “no conversion; also recorded: fails to mature even after two hours”. In the data set on BHK cells [6], the “CFTR localization by immunofluorescence” value is on record as “Perinuclear staining only”.

With “R516K: ΔF508 CFTR in which arginine 516 has been substituted with lysine”, the “cAMP stimulated 36Cl- efflux rate” value in the data set on BHK cells [3] was “No detectable increase in efflux rate”.

In the case of “wild-type CFTR: full-length human CFTR expressed from pNUT vector in BHK cells [reference compound]”, in the data set with CFTR chloride channels [1], the Conductance is recorded as 10.7 pS, the open probability is on record as about 0.25, the “Long mean closed time τc2” value is 680 ms and the “Mean open time τ0” value came to 230 ms. Moreover, in the data set with CFTR chloride channels [1], the “Short mean closed time τc1” value stood at 10 ms. Further, in the data set with BHK cells [2], the “radioactivity of pulse-labeled immature band present in mature band (conversion of precursor to product)” value was about 30%, the “maturation at the end of the pulse” value is listed as “no maturation” and the “conversion of precursor to mature endoH resistant form during chase” value is recorded as “begins within an hour”. In addition, the “CFTR localization by immunofluorescence” value with BHK cells [6] is “strong uniform staining of mature CFTR over the entire cell surface”.

In the case of “ΔF508/R29K: ΔF508 CFTR in which arginine 29 has been substituted with lysine”, the “cAMP stimulated 36Cl- efflux rate” value with BHK cells [3] is listed as “low rates of ^36Cl^− efflux occurred at delayed times after stimulation”. Further, in the data set on BHK cells [4], the “endoglycosidase H sensitivity of the large bands” value is reported as “Endoglycosidase-H insensitivity” and the “mature bands of lower mobility on Western blot” value is given as “bands of lower mobility are produced”.
